Measured values from paper PMC6718736, “Validation of in vitro methods for human cytochrome P450 enzyme induction: Outcome of a multi-laboratory study” (Toxicology in Vitro, 2019).
Structures can show the parent of a compound that is named as a salt. Where two headings read alike, the source gives them in different places.

Legend:
CYP1A2 [1] = assay: CYP1A2 enzyme induction assay in cryopreserved HepaRG cells (phenacetin probe, LC/MS); format: in vitro ADME, human; conditions: for Assigned classification CYP1A2: HepaRG; as to Assigned classification CYP1A2: key: 1=Positive=inducer; 0=Negative=non-inducer
CYP1A2 [2] = conditions: CYP1A2, human; ref Table 1; cited from earlier work
[3] = cited from earlier work
CYP2B6 [4] = conditions: cited from earlier work
CYP2B6 [5] = assay: CYP2B6 enzyme induction assay in cryopreserved HepaRG cells (bupropion probe, LC/MS); format: in vitro ADME, human; conditions: for Prediction in vivo inducer: Cmax/F2 >0.5 criterion; for Assigned classification CYP2B6: HepaRG; as to Assigned classification CYP2B6: key: 1=Positive=inducer; 0=Negative=non-inducer
CYP3A4 [6] = conditions: CYP3A4, human in vivo reference classification (Table 11); cited from earlier work
CYP3A4 [7] = assay: CYP3A4 enzyme induction assay in cryopreserved HepaRG cells (midazolam probe, LC/MS); format: in vitro ADME, human; conditions: for Assigned classification CYP3A4: HepaRG; as to Assigned classification CYP3A4: key: 1=Positive=inducer; 0=Negative=non-inducer
CYP = CYP isoforms induced; ref Abadie et al. (2009), Richert et al. (2010), Preissner et al. (2010), Hoffmann et al. (2014); cited from earlier work
CYP3A4 [8] = assay: CYP3A4 enzyme induction assay in cryopreserved primary human hepatocytes (PHH); conditions: for Assigned classification CYP3A4: PHH
CYP2B6 [9] = assay: CYP2B6 enzyme induction assay in cryopreserved primary human hepatocytes (PHH); format: in vitro ADME; conditions: for Assigned classification CYP2B6: PHH;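 as to Assigned classification CYP2B6: code 1 means positive inducer and 0 means non-inducer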
CYP1A2 [10] = assay: CYP1A2 enzyme induction assay in cryopreserved primary human hepatocytes (PHH); format: in vitro ADME; conditions: for Assigned classification CYP1A2: PHH;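 as to Assigned classification CYP1A2: code 1 means positive inducer and 0 means non-inducer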

**Q.** Which “Prediction in vivo inducer” value (CYP1A2 [1]; CYP1A2, HepaRG cells, Cmax/F2 >0.5 criterion) does the source give for `CC(C)NCC(O)c1ccc(NS(C)(=O)=O)cc1` (stereo not drawn) [Sotalol hydrochloride] here?
**A.** No

**Q.** And the Induction in vitro (CYP1A2 [1]; CYP1A2, HepaRG cells, positive in one batch in each of the three laboratories)?
**A.** No

**Q.** And the “Assigned classification CYP1A2” value (CYP1A2 [1]; Lab 1, batch 20)?
**A.** 0

**Q.** And the “Assigned classification CYP1A2” value (CYP1A2 [1]; Lab 1, batch 35)?
**A.** 0

**Q.** What about the “Assigned classification CYP1A2” value (CYP1A2 [1]; Lab 1, batch 36) of the same compound?
**A.** 0

**Q.** And the “Assigned classification CYP1A2” value (CYP1A2 [1]; Lab 2, batch 20)?
**A.** 0

**Q.** And the “Assigned classification CYP1A2” value (CYP1A2 [1]; Lab 2, batch 35)?
**A.** 0

**Q.** What about the “Assigned classification CYP1A2” value (CYP1A2 [1]; Lab 2, batch 36) of the same compound?
**A.** 0

**Q.** And the “Assigned classification CYP1A2” value (CYP1A2 [1]; Lab 3, batch 20)?
**A.** 1

**Q.** What about the “Assigned classification CYP1A2” value (CYP1A2 [1]; Lab 3, batch 35) of the same compound?
**A.** 0

**Q.** And the “Assigned classification CYP1A2” value (CYP1A2 [1]; Lab 3, batch 36)?
**A.** 0

**Q.** What about the Induction in vivo (CYP1A2 [2]) of the same compound?
**A.** No

**Q.** What about the Cmax ([3]; human in vivo plasma concentration, normal dose) of the same compound?
**A.** 2000 nM

**Q.** What about the Cmax ([3]; human in vivo, normal dose (Table 10)) of the same compound?
**A.** 2000 nM

**Q.** What about the Induction in vivo (CYP2B6 [4]; CYP2B6, human in vivo reference classification) of the same compound?
**A.** No

**Q.** And the Induction in vivo (CYP2B6 [4]; CYP2B6, human, ref Table 1)?
**A.** No

**Q.** What about the “Prediction in vivo inducer” value (CYP2B6 [5]; CYP2B6, HepaRG cells, listed as Sotalol) of the same compound?
**A.** No

**Q.** What about the “Prediction in vivo inducer” value (CYP2B6 [5]; CYP2B6, HepaRG cells, listed as sotalol) of the same compound?
**A.** correctly predicted

**Q.** What about the Induction in vitro (CYP2B6 [5]; CYP2B6, HepaRG cells, positive in one batch in each of the three laboratories) of the same compound?
**A.** No

**Q.** What about the “Assigned classification CYP2B6” value (CYP2B6 [5]; Lab 1, batch 20) of the same compound?
**A.** 0

**Q.** And the “Assigned classification CYP2B6” value (CYP2B6 [5]; Lab 1, batch 35)?
**A.** 0

**Q.** What about the “Assigned classification CYP2B6” value (CYP2B6 [5]; Lab 1, batch 36) of the same compound?
**A.** 0

**Q.** What about the “Assigned classification CYP2B6” value (CYP2B6 [5]; Lab 2, batch 20) of the same compound?
**A.** 0

**Q.** And the “Assigned classification CYP2B6” value (CYP2B6 [5]; Lab 2, batch 35)?
**A.** 0

**Q.** And the “Assigned classification CYP2B6” value (CYP2B6 [5]; Lab 2, batch 36)?
**A.** 0

**Q.** What about the “Assigned classification CYP2B6” value (CYP2B6 [5]; Lab 3, batch 20) of the same compound?
**A.** 0

**Q.** And the “Assigned classification CYP2B6” value (CYP2B6 [5]; Lab 3, batch 35)?
**A.** 0

**Q.** And the “Assigned classification CYP2B6” value (CYP2B6 [5]; Lab 3, batch 36)?
**A.** 0

**Q.** And the Induction in vivo (CYP3A4 [6])?
**A.** No

**Q.** And the Induction in vitro (CYP3A4 [7]; CYP3A4, HepaRG cells)?
**A.** No

**Q.** What about the “Prediction in vivo inducer” value (CYP3A4 [7]; CYP3A4, HepaRG cells) of the same compound?
**A.** No

**Q.** And the “Assigned classification CYP3A4” value (CYP3A4 [7]; Lab 1, batch 20)?
**A.** 0

**Q.** And the “Assigned classification CYP3A4” value (CYP3A4 [7]; Lab 1, batch 35)?
**A.** 0

**Q.** What about the “Assigned classification CYP3A4” value (CYP3A4 [7]; Lab 1, batch 36) of the same compound?
**A.** 0

**Q.** And the “Assigned classification CYP3A4” value (CYP3A4 [7]; Lab 2, batch 20)?
**A.** 0

**Q.** And the “Assigned classification CYP3A4” value (CYP3A4 [7]; Lab 2, batch 35)?
**A.** 0

**Q.** What about the “Assigned classification CYP3A4” value (CYP3A4 [7]; Lab 2, batch 36) of the same compound?
**A.** 0

**Q.** And the “Assigned classification CYP3A4” value (CYP3A4 [7]; Lab 3, batch 20)?
**A.** 0

**Q.** What about the “Assigned classification CYP3A4” value (CYP3A4 [7]; Lab 3, batch 35) of the same compound?
**A.** 0

**Q.** What about the “Assigned classification CYP3A4” value (CYP3A4 [7]; Lab 3, batch 36) of the same compound?
**A.** 0

**Q.** And the “CYP induction in vitro (human hepatocytes)” value (CYP)?
**A.** No

**Q.** What about the Induction in vitro (CYP3A4 [8]; CYP3A4, PHH) of the same compound?
**A.** No

**Q.** And the “Prediction in vivo inducer” value (CYP3A4 [8]; CYP3A4, PHH)?
**A.** No

**Q.** And the “Assigned classification CYP3A4” value (CYP3A4 [8]; Lab 1, batch 0 6 A)?
**A.** 0

**Q.** What about the “Assigned classification CYP3A4” value (CYP3A4 [8]; Lab 1, batch 4 0 8) of the same compound?
**A.** 0

**Q.** And the “Assigned classification CYP3A4” value (CYP3A4 [8]; Lab 1, batch 8 0 8)?
**A.** 0

**Q.** And the “Assigned classification CYP3A4” value (CYP3A4 [8]; Lab 2, batch 0 6 A)?
**A.** 0

**Q.** And the “Assigned classification CYP3A4” value (CYP3A4 [8]; Lab 2, batch 4 0 8)?
**A.** 0

**Q.** And the “Assigned classification CYP3A4” value (CYP3A4 [8]; Lab 2, batch 8 0 8)?
**A.** 0

**Q.** And the “Assigned classification CYP3A4” value (CYP3A4 [8]; Lab 3, batch 0 6 A)?
**A.** 0

**Q.** What about the “Assigned classification CYP3A4” value (CYP3A4 [8]; Lab 3, batch 4 0 8) of the same compound?
**A.** 0

**Q.** And the “Assigned classification CYP3A4” value (CYP3A4 [8]; Lab 3, batch 8 0 8)?
**A.** 0

**Q.** What about the Induction in vitro (CYP2B6 [9]; CYP2B6, PHH) of the same compound?
**A.** No

**Q.** And the “Prediction in vivo inducer” value (CYP2B6 [9]; CYP2B6, PHH)?
**A.** No

**Q.** And the “Prediction in vivo inducer” value (CYP2B6 [9]; CYP2B6, PHH, Cmax/F2 >0.5 criterion)?
**A.** negative

**Q.** What about the “Assigned classification CYP2B6” value (CYP2B6 [9]; Lab 1, batch 0 6 A) of the same compound?
**A.** 0

**Q.** What about the “Assigned classification CYP2B6” value (CYP2B6 [9]; Lab 1, batch 4 0 8) of the same compound?
**A.** 0

**Q.** What about the “Assigned classification CYP2B6” value (CYP2B6 [9]; Lab 1, batch 8 0 8) of the same compound?
**A.** 0

**Q.** What about the “Assigned classification CYP2B6” value (CYP2B6 [9]; Lab 2, batch 0 6 A) of the same compound?
**A.** 0

**Q.** What about the “Assigned classification CYP2B6” value (CYP2B6 [9]; Lab 2, batch 4 0 8) of the same compound?
**A.** 0

**Q.** And the “Assigned classification CYP2B6” value (CYP2B6 [9]; Lab 2, batch 8 0 8)?
**A.** 0

**Q.** And the “Assigned classification CYP2B6” value (CYP2B6 [9]; Lab 3, batch 0 6 A)?
**A.** 1

**Q.** What about the “Assigned classification CYP2B6” value (CYP2B6 [9]; Lab 3, batch 4 0 8) of the same compound?
**A.** 0

**Q.** And the “Assigned classification CYP2B6” value (CYP2B6 [9]; Lab 3, batch 8 0 8)?
**A.** 0

**Q.** And the “Prediction in vivo inducer” value (CYP1A2 [10]; CYP1A2, PHH, Cmax/F2 >0.5 criterion)?
**A.** No

**Q.** And the Induction in vitro (CYP1A2 [10]; CYP1A2, PHH, positive in one donor in each of the three laboratories)?
**A.** No

**Q.** What about the “Assigned classification CYP1A2” value (CYP1A2 [10]; Lab 1, batch 0 6 A) of the same compound?
**A.** 0

**Q.** What about the “Assigned classification CYP1A2” value (CYP1A2 [10]; Lab 1, batch 4 0 8) of the same compound?
**A.** 0

**Q.** What about the “Assigned classification CYP1A2” value (CYP1A2 [10]; Lab 1, batch 8 0 8) of the same compound?
**A.** 0

**Q.** And the “Assigned classification CYP1A2” value (CYP1A2 [10]; Lab 2, batch 0 6 A)?
**A.** 0

**Q.** And the “Assigned classification CYP1A2” value (CYP1A2 [10]; Lab 2, batch 4 0 8)?
**A.** 0

**Q.** And the “Assigned classification CYP1A2” value (CYP1A2 [10]; Lab 2, batch 8 0 8)?
**A.** 0

**Q.** And the “Assigned classification CYP1A2” value (CYP1A2 [10]; Lab 3, batch 0 6 A)?
**A.** 0

**Q.** And the “Assigned classification CYP1A2” value (CYP1A2 [10]; Lab 3, batch 4 0 8)?
**A.** 0

**Q.** And the “Assigned classification CYP1A2” value (CYP1A2 [10]; Lab 3, batch 8 0 8)?
**A.** 0
